These results are taken from ChEMBL document CHEMBL5143519, “Exploring disordered loops in DprE1 provides a functional site to combat drug-resistance in Mycobacterium strains” (Eur J Med Chem, 2022).

Converted amounts (≈) assume the structure as drawn. The source made the active and inactive calls. The calls are words filed in the database; no cut-off is given here.

The test system of assay [1] is Mycobacterium tuberculosis variant bovis. As to the kind of experiment: Antimycobacterial activity against Mycobacterium bovis BCG overexpressing DprE1 assessed as inhibition of bacterial growth incubated for 7 days by microplate alamar blue assay. It is filed as functional. Particulars: 168 h, time 7 day. Background: Alamar Blue is a resazurin reagent that responds to reducing activity.

Assay [2] has the same test system. As to the kind of experiment: Antimycobacterial activity against Mycobacterium bovis BCG assessed as reduction in bacterial colony forming units at 20 times MIC concentration measured after 21 days by time kill assay. The format is functional. Particulars: time 21 day.
For assay [3] the test system is unchanged. Kind of assay: Antimycobacterial activity against Mycobacterium bovis BCG assessed as inhibition of bacterial growth incubated for 7 days by microplate alamar blue assay. It is filed as functional. Particulars: 168 h, time 7 day.
For assay [4] the test system is unchanged. As to the kind of experiment: Antimycobacterial activity against Mycobacterium bovis BCG overexpressing DprE1 assessed as reduction in bacterial colony forming units at 20 times MIC concentration measured after 21 days by time kill assay. The format is functional, organism-based. Particulars: time 21.0 day.
For assay [5] the test system is unchanged. As to the kind of experiment: Antimycobacterial activity against Mycobacterium bovis BCG assessed as reduction in bacterial colony forming units at 20 times MIC concentration measured after 7 days by time kill assay. The format is functional, organism-based. Particulars: time 7.0 day.

Consider `CO[C@H]1/C=C/O[C@@]2(C)Oc3c(C)c(O)c4c(O)c(c(/C=N/N5CCN(C)CC5)c(O)c4c3C2=O)NC(=O)/C(C)=C\C=C\[C@H](C)[C@H](O)[C@@H](C)[C@@H](O)[C@@H](C)[C@H](OC(C)=O)[C@@H]1C` [RIFAMPIN], for which the MIC in assay [1] and in assay [3] was 0.35 µM (≈ 0.288 µg/mL) each time. For the same compound, the Activity in assay [2] came out at 3 log10CFU/ml.

`O=C(NC(=O)c1ccsc1NC(=O)c1nc2ccccc2s1)OCC1CCC1`: the MIC in assay [1] worked out at 30 µM (≈ 12.5 µg/mL); in assay [3], 12 µM (≈ 4.99 µg/mL).

As to `O=C(NC(=O)c1ccsc1NC(=O)c1nc2ccccc2s1)OCC1CC1`, the minimum inhibitory concentration (MIC) amounted to 12.4 µM (≈ 4.99 µg/mL) in assay [1] and 3.11 µM (≈ 1.25 µg/mL) in assay [3]. Moreover, the result in assay [4] and in assay [5] was Active. Further, the Activity in assay [2] came out at 3 log10CFU/ml.

In the case of `CCOC(=O)NC(=O)c1ccsc1NC(=O)c1nc2ccccc2s1`, the minimal inhibitory concentration (MIC) in assay [1] stood at 66.5 µM (≈ 25 µg/mL); in assay [3], 13.3 µM (≈ 4.99 µg/mL). Also, the Activity in assay [2] came out at 3 log10CFU/ml.

The term MIC denotes the lowest concentration found to suppress growth.
